According to US9918968B2, “Rapamycin analogs targeting proteasome function in the treatment of cancer” (THE BOARD OF REGENTS OF THE UNIVERSITY OF TEXAS SYSTEM, priority 2013, dated 2018):

Test system: T1, 20S proteasome α face
T1 construct: purchased Enzo LifeSciences
Test: AFM imaging of open/closed conformers of 20S proteasome α face
Parameters: species or system human
Conditions: 10 μM compound
Experimental: AFM imaging of the 20S proteasomes were performed as previously described, in tapping (oscillating) mode in liquid (Osmulski et al., 2009 and Gaczynska and Osmulski, 2011). In short, 3 μL of proteasome preparations diluted to nanomolar concentration were deposited on a freshly cleaved muscovite mica surface. After 2 min incubation allowing electrostatic attachment of the protein particles to mica the droplet was overlaid with 30 microL of 50 mM Tris-HCl buffer (pH 7.0) and mounted in the wet chamber of a MultiMode NanoScope Ma (Bruker Corp.). Oxide-sharpened silicon nitride tips on cantilevers with a nominal spring constant 0.32 N/m (Bruker Corp.) were used to image 1 μm^2 fields in the height mode, with a scan rate of 3.05 Hz. The excitation frequency was manually tuned to 9-10 kHz, with a drive voltage of 200-500 mV and a relatively high set point (1.6 V to 1.9 V) to assure tapping with low, non-destructive force. […] As the inventors established previously, such resolution was sufficient to detect distinct conformations of the α face, covered by six scan lines. Multiple fields were scanned for each sample to collect images of hundreds of particles. Selected fields were repeatedly scanned to monitor changes in topography of the same particles for prolonged time. Inhibitors and the SucLLVY-MCA substrate were diluted in 10 μL of the imaging buffer and directly injected into the chamber. Raw images are presented, with a standard plain-fit and flattening (NanoScope software v.5.12) used as the only processing tools. For display purposes the brightness and contrast of the images was adjusted with the Nanoscope software or with Adobe Photoshop (Adobe Systems Inc.), and outlier scan lines were occasionally manually removed (Nanoscope software). Top view (“standing”, rounded) proteasomes were distinguished from the minor population of side-view (“lying”, rectangular) particles as described, by comparison of their length—to width ratios (Osmulski et al., 2009). The dimensions of particles were approximated and a shape of the α face in top-view proteasomes was judged with the help of a section tool in the Nanoscope v.5.12 or SPIP v.6.02 software (Image Metrology).
For this purpose, the inventors used the noninvasive tapping mode atomic force microscopy (AFM) in liquid, the imaging technique suitable for analysis of surface topography of macromolecules in their native state with a nanometer-scale practical resolution. The inventors established before that AFM imaging is a useful tool for studying structural dynamics of the 20S α face (Osmulski et al., 2009, Gaczynska et al., 2003; Gaczynska et al., 2011). They acquired and analyzed images of hundreds of single native, fully active 20S molecules. The majority of particles were in top-view (“standing”) position conveniently allowing for imaging of their α faces. […] Following previous extensive studies, the inventors refer to the two forms as “closed-gate” and “open-gate” proteasomes, respectively (Osmulski et al., 2009). As described before, the inventors used the shape of sections carried out in four directions through the top portion of the surface topography of the α ring to distinguish between the two forms. In short, the particle was classified as closed if all four sections were cone-shaped. In contrast, the particle was classified as open if all sections presented a dip surrounded by a rim (FIG. 5A) (Osmulski, et al., 2009). The same particles imaged in consecutive scans were able to assume either closed or open conformations, however the cone-shaped particles were always more abundant than crater-shaped, and accounted for about three-quarters of the imaged molecules (FIG. 5B). Addition of rapamycin to the imaged particles remarkably changed the partition of forms. […]

## CO[C@@H](C[C@@H]1CC[C@@H](C)[C@](O)(C(=O)C(=O)N2CCCC[C@H]2C(=O)[O-])O1)/C(C)=C/C=C/C=C/[C@@H](C)C[C@@H](C)C(=O)[C@H](OC)[C@H](O)/C(C)=C/[C@@H](C)C(=O)/C=C/[C@H](C)C[C@@H]1CC[C@@H](O)[C@H](OC)C1.[Na+] [seco-rapamycin]
  closed conformers: ~40%
  open conformers: about 60%
